Laboratory results: paper PMC11714206, “Massively Parallel Screening of Toll/Interleukin‐1 Receptor (TIR)‐Derived Peptides Reveals Multiple Toll‐Like Receptors (TLRs)‐Targeting Immunomodulatory Peptides” (Advanced Science, 2024)

Target: T1, MyD88^TIR (Homo sapiens, UniProt Q99836)
T1 construct: MyD88 (residues 148–296); 6xHis; made in house; host or cells: E. coli BL21 (DE3)
Assay: T‐Surf phage library (P8 and P3) selection against MyD88^TIR, four rounds, NGS read counts
Assay type: binding
Conditions: for P3_MyD88 Rank (after) / P3_MyD88 Rank (before): P3 library; for P8_MyD88 Rank (after) / P8_MyD88 Rank (before): P8 library; for Population: 4th round of selection against MyD88 TIR, share of NGS reads
Procedure, shortened: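 Four panning rounds on TIR domain adsorbed at 5 µg mL^−1; binding 1 h at 20–22 °C, elution with 100 mM HCl. Output: NGS read counts of round‐4 pools versus naïve library.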

[1] = selection against MyD88, rank by count after grouping
[2] = selection against MyD88, rank by count before grouping
[3] = selection against MyD88 TIR, rank by count after grouping
[4] = selection against MyD88 TIR, rank by count before grouping
[5] = P8_MyD88: rank by count after grouping
[6] = P8_MyD88: rank by count before grouping
[7] = P8_MyD88 pool: P8 T-Surf phage library
[8] = selection against MyD88, rank after grouping
[9] = selection against MyD88, rank before grouping
[10] = 4R selection against MyD88, rank after grouping
[11] = 4R selection against MyD88, rank before grouping
[12] = P3_MyD88: rank by count after grouping
[13] = P3_MyD88: rank by count before grouping
[14] = P8_MyD88: rank by NGS read count after grouping
[15] = P8_MyD88: rank by NGS read count before grouping
[16] = P3_MyD88 pool: P3 T-Surf phage library

T1 sequence (Q99836 148-296): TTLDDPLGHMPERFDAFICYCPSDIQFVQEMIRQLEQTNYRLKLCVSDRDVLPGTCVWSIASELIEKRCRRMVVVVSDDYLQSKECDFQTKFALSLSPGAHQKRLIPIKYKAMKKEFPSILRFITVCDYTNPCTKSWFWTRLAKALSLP

Sequence: ARFKDMIINKWRTALKERLP
- P3_MyD88 Rank (after) [1]: 744
- P3_MyD88 Rank (before) [2]: 1964

Sequence: YLLLGVFQTIFARRTA
- P8_MyD88 Rank (after) [3]: 276
- P8_MyD88 Rank (before) [4]: 1965

Sequence: YASSTWWLRELLQIA
- Rank (after) [5]: 147
- Rank (before) [6]: 208

Sequence: MDYLLRILHSSNFTTF
- Rank (after) [5]: 102
- Rank (before) [6]: 105
- Population [7]: 0.022%

Sequence: DYASSSWYLDELVHILW
- P8_MyD88 Rank (after) [3]: 262
- P8_MyD88 Rank (before) [4]: 693

Sequence: DWAWDYLLPNLEGSAG
- Rank (after) [5]: 432
- Rank (before) [6]: 2483

Sequence: KWLWDKLIYARSRNPH
- P3_MyD88 Rank (after) [8]: 490
- P3_MyD88 Rank (before) [9]: 3584

Sequence: QDLGWFYERLISQILK
- Rank (after) [5]: 108
- Rank (before) [6]: 114
- Population [7]: 0.02%

Sequence: DYANSSWALDELWLIL
- P8_MyD88 Rank (after) [8]: 510
- P8_MyD88 Rank (before) [9]: 2544

Sequence: WRDALNNISSIFGWVA
- P8_MyD88 Rank (after) [1]: 764
- P8_MyD88 Rank (before) [2]: 1648

Sequence: VGKLKKGESFAPELLR
- P3_MyD88 Rank (after) [3]: 229
- P3_MyD88 Rank (before) [4]: 1765

Sequence: ELDFSHFWLFDGQSGKDA
- P8_MyD88 Rank (after) [3]: 216
- P8_MyD88 Rank (before) [4]: 359

Sequence: DPQDLDWFYERLASLL
- Rank (after) [5]: 135
- Rank (before) [6]: 720

Sequence: NELVQVWSSKANSLVR
- P3_MyD88 Rank (after) [1]: 693
- P3_MyD88 Rank (before) [2]: 3400

Sequence: DPQVLVWLYERPFRQI
- P8_MyD88 Rank (after) [10]: 629
- P8_MyD88 Rank (before) [11]: 2644

Sequence: SNFREGLWRQQELSKK
- Rank (after) [12]: 438
- Rank (before) [13]: 3282

Sequence: NQWRFGSKVDAWKAAL
- P3_MyD88 Rank (after) [8]: 577
- P3_MyD88 Rank (before) [9]: 3470

Sequence: RFGGDTFLEYLVLISM
- P8_MyD88 Rank (after) [1]: 765
- P8_MyD88 Rank (before) [2]: 3753

Sequence: SSFREGLWCLRELSKK
- Rank (after) [12]: 394
- Rank (before) [13]: 3156

Sequence: DSQDLDWLYERLVSLL
- P8_MyD88 Rank (after) [10]: 621
- P8_MyD88 Rank (before) [11]: 2497

Sequence: SREYASCSWALTELVH
- P3_MyD88 Rank (after) [10]: 647
- P3_MyD88 Rank (before) [11]: 3106

Sequence: LKWGGSCLSIKLAYAM
- Rank (after) [12]: 445
- Rank (before) [13]: 2411

Sequence: NQWRNALTATANLSGC
- Rank (after) [12]: 419
- Rank (before) [13]: 3517

Sequence: VANILGYHCIDWEHFVGIED
- P8_MyD88 Rank (after) [1]: 722
- P8_MyD88 Rank (before) [2]: 2169

Sequence: LSEESWRQALEKAGKL
- P3_MyD88 Rank (after) [3]: 202
- P3_MyD88 Rank (before) [4]: 2375

Sequence: DSVCLDRLLYSLHVTE
- P8_MyD88 Rank (after) [10]: 582
- P8_MyD88 Rank (before) [11]: 3130

Sequence: NDSLFWDRLPYSLNVT
- Rank (after) [5]: 468
- Rank (before) [6]: 3868

Sequence: PGYHWLEWEYFVGIED
- Rank (after) [5]: 442
- Rank (before) [6]: 1195

Sequence: DWVWVYRLPNLEGPAG
- Rank (after) [14]: 979
- Rank (before) [15]: 2403

Sequence: DPQDLDWFSERLVILF
- Rank (after) [14]: 1012
- Rank (before) [15]: 2747

Sequence: PEKIMAAKMRLSITL
- P3_MyD88 Rank (after) [3]: 274
- P3_MyD88 Rank (before) [4]: 2702

Sequence: GLYDELFMTETDERKR
- Rank (after) [12]: 439
- Rank (before) [13]: 1851

Sequence: YAASMRWFGELAKIVG
- P8_MyD88 Rank (after) [8]: 558
- P8_MyD88 Rank (before) [9]: 1710

Sequence: LSRVPGVHDFRGLVDI
- Rank (after) [12]: 441
- Rank (before) [13]: 2377

Sequence: DPQVLEWIYARLFSQM
- P8_MyD88 Rank (after) [10]: 649
- P8_MyD88 Rank (before) [11]: 2649

Sequence: VANILGYHWFDWEYFVVIGD
- Rank (after) [14]: 875
- Rank (before) [15]: 2171

Sequence: NEWVNAWTSKANRRVG
- P3_MyD88 Rank (after) [10]: 602
- P3_MyD88 Rank (before) [11]: 3395

Sequence: NLSGWHILDGFLFDEF
- Rank (after) [5]: 125
- Rank (before) [6]: 134
- Population [7]: 0.0131%

Sequence: YELDFSHFSLFEGQAT
- Rank (after) [5]: 463
- Rank (before) [6]: 1949

Sequence: SAASDDFWDGLIRMIE
- P8_MyD88 Rank (after) [8]: 502
- P8_MyD88 Rank (before) [9]: 3704

Sequence: DPQDLQWFYERLVSLMASGI
- P8_MyD88 Rank (after) [8]: 494
- P8_MyD88 Rank (before) [9]: 2920

Sequence: YAASPWWFYERVEILG
- P8_MyD88 Rank (after) [10]: 612
- P8_MyD88 Rank (before) [11]: 1716

Sequence: EWIREQLRPALEKAGKL
- Rank (after) [12]: 144
- Rank (before) [13]: 649

Sequence: ELDFSHFWLFEGHATGEA
- Rank (after) [5]: 127
- Rank (before) [6]: 141
- Population [7]: 0.0116%

Sequence: QDLGWFYERLFSQM
- P8_MyD88 Rank (after) [1]: 735
- P8_MyD88 Rank (before) [2]: 3564

Sequence: DPPDLDWCYQRLVNLP
- Rank (after) [14]: 1026
- Rank (before) [15]: 2628

Sequence: PQDLGWFYERLISQILK
- Rank (after) [5]: 386
- Rank (before) [6]: 1201

Sequence: YLRADDIWVWEKLLYA
- P8_MyD88 Rank (after) [10]: 646
- P8_MyD88 Rank (before) [11]: 2040

Sequence: NQWRSSPTAWASLSFA
- P3_MyD88 Rank (after) [8]: 530
- P3_MyD88 Rank (before) [9]: 3474

Sequence: QSAWALNQLLQIIDWH
- P8_MyD88 Rank (after) [3]: 196
- P8_MyD88 Rank (before) [4]: 269

Sequence: YAASPRWLDDLVNIVG
- P8_MyD88 Rank (after) [8]: 521
- P8_MyD88 Rank (before) [9]: 1754

Sequence: LVAHEISKKKKIFATI
- Population [16]: 0.00291%

Sequence: HWIDWVWDYLLPNLEGPAG
- P8_MyD88 Rank (after) [10]: 581
- P8_MyD88 Rank (before) [11]: 3518

Sequence: DHHLNLPRGKSVKPEILG
- P3_MyD88 Rank (after) [10]: 652
- P3_MyD88 Rank (before) [11]: 2057

Sequence: YTALNHSGFHTFRDND
- P3_MyD88 Rank (after) [3]: 253
- P3_MyD88 Rank (before) [4]: 1702

Sequence: SSLREGLWRLLELGKK
- P3_MyD88 Rank (after) [10]: 597
- P3_MyD88 Rank (before) [11]: 3255

Sequence: LGYHWNDGEYFVGIKD
- P8_MyD88 Rank (after) [8]: 489
- P8_MyD88 Rank (before) [9]: 3306

Sequence: KEVEGWRDALYEAANLS
- P3_MyD88 Rank (after) [1]: 684
- P3_MyD88 Rank (before) [2]: 3620

Sequence: AVDNETDKIQTPLKNE
- P3_MyD88 Rank (after) [3]: 231
- P3_MyD88 Rank (before) [4]: 1895

Sequence: YAASPRLFGEPVKIVG
- P8_MyD88 Rank (after) [8]: 497
- P8_MyD88 Rank (before) [9]: 1755

Sequence: KQWRNALTAEANLSGW
- P3_MyD88 Rank (after) [8]: 557
- P3_MyD88 Rank (before) [9]: 3552

Sequence: SAAYGDYWVRQIRMIE
- Rank (after) [5]: 469
- Rank (before) [6]: 3707

Sequence: SSFREGLWRLPELSRK
- Rank (after) [12]: 121
- Rank (before) [13]: 3183

Sequence: DPQDLDWFYERLFSQT
- P8_MyD88 Rank (after) [3]: 269
- P8_MyD88 Rank (before) [4]: 2858

Sequence: NQWPNALTAAANLRGW
- Rank (after) [12]: 132
- Rank (before) [13]: 3534

Sequence: KARQFGALREEKLRAA
- Rank (after) [12]: 425
- Rank (before) [13]: 3599

Sequence: YELDFSHFWLFVGQAP
- Rank (after) [14]: 1008
- Rank (before) [15]: 1929

Sequence: YLRLEVIWFWENRRYA
- P8_MyD88 Rank (after) [8]: 491
- P8_MyD88 Rank (before) [9]: 2075

Sequence: PQELEWCYERLVSLIL
- P8_MyD88 Rank (after) [3]: 240
- P8_MyD88 Rank (before) [4]: 3497

Sequence: DPQELDWIYQRLVSLF
- P8_MyD88 Rank (after) [1]: 714
- P8_MyD88 Rank (before) [2]: 2987

Sequence: DPQDLQWFYECLVSLL
- P8_MyD88 Rank (after) [8]: 514
- P8_MyD88 Rank (before) [9]: 2911

Sequence: LGYHCHDREYFVGIED
- P8_MyD88 Rank (after) [1]: 717
- P8_MyD88 Rank (before) [2]: 3311

Sequence: NQWRNAQTAAANLNGW
- P3_MyD88 Rank (after) [3]: 256
- P3_MyD88 Rank (before) [4]: 3525

Sequence: SSFRKGLWRLLELSKK
- Population [16]: 0.00408%

Sequence: WDFASNMAQSWDRLYY
- P8_MyD88 Rank (after) [3]: 246
- P8_MyD88 Rank (before) [4]: 1595
